The values below come from US7572786B2, “Substituted 1-piperidin-3-yl-4-piperidin-4-yl-piperazine derivatives and their use as neurokinin antagonists” (Janssen Pharmaceutica, N.V., priority 2002, dated 2009).

The target in one assay is NK1 (Homo sapiens, UniProt P25103). Briefly: Signal transduction (ST), intracellular Ca++ (FLIPR), NK1 antagonism. The format is cell-based. The note with it: for IC50: read-out: pIC50 NK1 (converted). The protocol:
(§1) This test evaluates in vitro functional NK1 antagonistic activity. For the measurements of intracellular Ca^++ concentrations the cells were grown on 96-well (black wall/transparent bottom) plates from Costar for 2 days until they reached confluence. The cells were loaded with 2 μM Fluo3 in DMEM containing 0.1% BSA and 2.5 mM probenecid for 1 h at 37° C. […] The cells were preincubated with a concentration range of antagonists for 20 min at RT and Ca^++-signals after addition of the agonists were measured in a Fluorescence Image Plate Reader (FLIPR from Molecular Devices, Crawley, England). The peak of the Ca^++-transient was considered as the relevant signal and the mean values of corresponding wells were analysed as described below.
(§2) The sigmoidal dose response curves were analysed by computerised curve-fitting, using the GraphPad Program. […] For antagonist responses the IC50-value was calculated using non-linear regression.

The next assay deals with T1, NK3 (Homo sapiens, UniProt P29371).
T1 sequence (P29371 1-465): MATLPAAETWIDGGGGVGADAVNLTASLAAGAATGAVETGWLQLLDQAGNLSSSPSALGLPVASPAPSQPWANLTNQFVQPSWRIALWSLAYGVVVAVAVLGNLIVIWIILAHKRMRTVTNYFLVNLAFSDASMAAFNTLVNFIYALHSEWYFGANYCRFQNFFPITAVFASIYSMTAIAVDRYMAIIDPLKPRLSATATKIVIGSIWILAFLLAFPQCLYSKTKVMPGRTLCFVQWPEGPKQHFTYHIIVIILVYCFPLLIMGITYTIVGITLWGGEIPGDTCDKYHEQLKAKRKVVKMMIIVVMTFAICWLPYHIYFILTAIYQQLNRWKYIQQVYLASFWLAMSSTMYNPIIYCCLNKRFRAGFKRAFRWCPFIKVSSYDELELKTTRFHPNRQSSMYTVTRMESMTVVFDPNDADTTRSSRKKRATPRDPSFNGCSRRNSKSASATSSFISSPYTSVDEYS
Briefly: Signal transduction (ST), intracellular Ca++ (FLIPR), NK3. It is filed as cell-based. As to conditions: read-out: pIC50 NK3 (converted). The protocol:
[The source words this procedure for another target and reports this target under the same test.] as §1, §2

Sequence of NK1 (P25103 whole entry): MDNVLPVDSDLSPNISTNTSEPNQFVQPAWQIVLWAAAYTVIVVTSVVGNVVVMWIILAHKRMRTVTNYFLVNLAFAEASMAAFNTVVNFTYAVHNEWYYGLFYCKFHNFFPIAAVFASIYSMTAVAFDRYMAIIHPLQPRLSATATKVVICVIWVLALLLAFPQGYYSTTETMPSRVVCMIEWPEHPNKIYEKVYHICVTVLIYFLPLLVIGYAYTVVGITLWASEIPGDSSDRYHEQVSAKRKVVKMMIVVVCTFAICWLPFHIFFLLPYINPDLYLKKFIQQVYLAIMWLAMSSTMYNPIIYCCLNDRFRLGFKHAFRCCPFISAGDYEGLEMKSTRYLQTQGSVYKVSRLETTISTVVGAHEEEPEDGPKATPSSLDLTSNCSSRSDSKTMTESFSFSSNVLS

On to `O=C(c1cc(C(F)(F)F)cc(C(F)(F)F)c1)N1CCC(N2CCN(C3CCCNC3)CC2)CC1Cc1ccccc1` (single isomer, unassigned) [Compound 109], for which, at NK1, the “pIC50 NK1” value is recorded as 7.3.
As to `O=C(c1ccoc1)N1CCCC(N2CCCN(C3CCN(C(=O)c4cc(C(F)(F)F)cc(C(F)(F)F)c4)C(Cc4ccccc4)C3)CC2)C1` (single isomer, unassigned) [Compound 112], on NK1, the IC50 was 158 nM.
As for `O=C(C1CCOC1)N1CCCC(N2CCCN(C3CCN(C(=O)c4cc(C(F)(F)F)cc(C(F)(F)F)c4)C(Cc4ccccc4)C3)CC2)C1` (single isomer, unassigned) [Compound 115], the IC50 at NK3 was 6310 nM; on NK1 it was 39.8 nM.
For the molecule `O=C(c1ccoc1)N1CCCC(N2CCCN(C3CCN(C(=O)c4cc(C(F)(F)F)cc(C(F)(F)F)c4)C(Cc4ccccc4)C3)CC2)C1` (single isomer, unassigned) [Compound 116], the IC50 was 3980 nM on NK3 and 50.1 nM on NK1.
As for `O=C(C1CCOC1)N1CCCC(N2CCCN(C3CCN(C(=O)c4cc(C(F)(F)F)cc(C(F)(F)F)c4)C(Cc4ccccc4)C3)CC2)C1` (single isomer, unassigned) [Compound 121], the values for the IC50 on NK3 and at NK1 were 7940 nM and 126 nM, respectively.
With `O=C(c1cc(C(F)(F)F)cc(C(F)(F)F)c1)N1CCC(N2CCN(C3CCCN(Cc4ccccc4)C3)CC2)CC1Cc1ccccc1` (stereo not drawn) [Compound 1], the IC50 on NK1 is 50.1 nM.
Consider `O=C(c1cc(C(F)(F)F)cc(C(F)(F)F)c1)N1CCC(N2CCN(C3CCCNC3)CC2)CC1Cc1ccccc1` (stereo not drawn) [Compound 2], for which the IC50 on NK1 is 20 nM.
Take `Cc1cc(C)cc(C(=O)N2CCCC(N3CCN(C4CCN(C(=O)c5cc(C(F)(F)F)cc(C(F)(F)F)c5)C(Cc5ccccc5)C4)CC3)C2)c1` (stereo not drawn) [Compound 3]: the results for the IC50 at NK3 and on NK1 were 2000 nM and 79.4 nM, respectively.
With `COc1ccc(S(=O)(=O)N2CCCC(N3CCN([C@H]4CCN(C(=O)c5cc(C(F)(F)F)cc(C(F)(F)F)c5)[C@H](Cc5ccccc5)C4)CC3)C2)cc1F` (stereo partly drawn) [Compound 7], the values for the IC50 on NK3 and at NK1 were 1000 nM and 50.1 nM, respectively.
The like results for `O=C(c1ccccc1)N1CCCC(N2CCN([C@H]3CCN(C(=O)c4cc(C(F)(F)F)cc(C(F)(F)F)c4)[C@H](Cc4ccccc4)C3)CC2)C1` (stereo partly drawn) [Compound 8] were, in that order, 251 nM and 20 nM.
`O=C(c1cc(F)ccc1F)N1CCCC(N2CCN([C@H]3CCN(C(=O)c4cc(C(F)(F)F)cc(C(F)(F)F)c4)[C@H](Cc4ccccc4)C3)CC2)C1` (stereo partly drawn) [Compound 12]: the figures for the IC50 at NK3 and at NK1 were 3160 nM and 25.1 nM, respectively.
In the case of `Cc1cc(C)cc(C(=O)N2CCCC(N3CCN([C@@H]4CCN(C(=O)c5cc(C(F)(F)F)cc(C(F)(F)F)c5)[C@H](Cc5ccccc5)C4)CC3)C2)c1.O=C(O)/C=C/C(=O)O.O=C(O)/C=C/C(=O)O` (stereo partly drawn) [Compound 13], at NK1, the “pIC50 NK1” value is recorded as 6.3.
Regarding `CC1(C(=O)N2CCCC(N3CCN([C@H]4CCN(C(=O)c5cc(C(F)(F)F)cc(C(F)(F)F)c5)[C@H](Cc5ccccc5)C4)CC3)C2)CC1` (stereo partly drawn) [Compound 14], the IC50 was 2000 nM at NK3 and 12.6 nM at NK1.
With `O=C(C1CCOC1)N1CCCC(N2CCN([C@H]3CCN(C(=O)c4cc(C(F)(F)F)cc(C(F)(F)F)c4)[C@H](Cc4ccccc4)C3)CC2)C1` (stereo partly drawn) [Compound 16], the IC50 at NK3 is 1000 nM; at NK1 it was 12.6 nM.
Take `O=C(c1cc(C(F)(F)F)cc(C(F)(F)F)c1)N1CCC(N2CCN(C3CCCNC3)CC2)CC1Cc1ccccc1` (stereo not drawn) [Compound 108]: the IC50 at NK1 is 79.4 nM.
On to `O=C(c1cc(C(F)(F)F)cc(C(F)(F)F)c1)N1CC[C@@H](N2CCCN(C3CCCN(Cc4ccccc4)C3)CC2)C[C@H]1Cc1ccccc1` (stereo partly drawn) [Compound 110], for which the IC50 at NK1 is 200 nM.
For the molecule `O=C(c1ccccc1Cl)N1CCCC(N2CCCN([C@@H]3CCN(C(=O)c4cc(C(F)(F)F)cc(C(F)(F)F)c4)[C@H](Cc4ccccc4)C3)CC2)C1` (stereo partly drawn) [Compound 119], the IC50 at NK1 is 126 nM.
Same read-out and setting: the figure for `O=C(c1cc(C(F)(F)F)cc(C(F)(F)F)c1)N1CC[C@H](N2CCCN(C3CCCN(S(=O)(=O)c4cccs4)C3)CC2)C[C@H]1Cc1ccccc1` (stereo partly drawn) [Compound 122] is 100 nM.
